{
  "source": "patent US20130202637A1",
  "about": "“Dietary Supplements Including Ellagitannins and Ellagic Acid” (priority 2012, published 2013)",
  "origin": "cited, not measured here",
  "data": [
    {"smiles": "O=c1oc2c(O)c(O)cc3c(=O)oc4c(O)c(O)cc1c4c23", "note": "[ellagic acid]", "values": [
      {"measurement": "G-Arrest began", "setting": "breast cancer", "result": 72, "unit": "h"},
      {"measurement": "G-Arrest began", "setting": "cervical cancer", "result": 72, "unit": "h"}
    ]}
  ]
}
